Test results reported in patent US20110045101A1, “FUNGICIDAL SUBSTITUTED AZOLES” (E.I. Du Pont De Nemours and Company, priority 2009, published 2011).
Marks after values point to notes of the source that are not given here.

Assays:
Type in all cases: in vivo
Conditions in all cases: 100 = 100% disease control
[1] = test system: Botrytis cinerea; test: Test C: tomato Botrytis on tomato seedlings, sprayed the day before inoculation, visual disease rating
Text: General protocol for preparing test suspensions for Tests A-J: The test compounds were first dissolved in acetone in an amount equal to 3% of the final volume and then suspended at the desired concentration (in ppm) in acetone and purified water (50/50 mix) containing 250 ppm of the surfactant Trem® 014 (polyhydric alcohol esters). The resulting test suspensions were then used in tests A-J. Spraying a 200 ppm test suspension to the point of run-off on the test plants was the equivalent of a rate of 500 g/ha. […] The test suspension was sprayed to the point of run-off on tomato seedlings. […] A dash (-) indicates no test results. All results are for 200 ppm except where followed by “*”, which indicates 40 ppm.

[2] = test system: Alternaria solani; test: Test D: tomato early blight, sprayed the day before inoculation, visual disease rating
Text: (§1) General protocol for preparing test suspensions for Tests A-J: The test compounds were first dissolved in acetone in an amount equal to 3% of the final volume and then suspended at the desired concentration (in ppm) in acetone and purified water (50/50 mix) containing 250 ppm of the surfactant Trem® 014 (polyhydric alcohol esters). The resulting test suspensions were then used in tests A-J. Spraying a 200 ppm test suspension to the point of run-off on the test plants was the equivalent of a rate of 500 g/ha. […] The test suspension was sprayed to the point of run-off on wheat seedlings. […] A dash (-) indicates no test results. All results are for 200 ppm except where followed by “*”, which indicates 40 ppm.

[3] = test system: Septoria nodorum; test: Test F: wheat glume blotch on wheat seedlings, sprayed the day before inoculation, visual disease rating
Text: as §1

[4] = test system: Septoria tritici; test: Test G: wheat leaf blotch on wheat seedlings, sprayed the day before inoculation, visual disease rating
Text: General protocol for preparing test suspensions for Tests A-J: The test compounds were first dissolved in acetone in an amount equal to 3% of the final volume and then suspended at the desired concentration (in ppm) in acetone and purified water (50/50 mix) containing 250 ppm of the surfactant Trem® 014 (polyhydric alcohol esters). The resulting test suspensions were then used in tests A-J. Spraying a 200 ppm test suspension to the point of run-off on the test plants was the equivalent of a rate of 500 g/ha. […] The test suspension was sprayed to the point of run-off on wheat seedlings. The following day the seedlings were inoculated with a spore suspension of Septoria tritici (the causal agent of wheat leaf blotch) and incubated in saturated atmosphere at 24° C. for 48 h, and then moved to a growth chamber at 20° C. for 19 days, after which time visual disease ratings were made. […] A dash (-) indicates no test results. All results are for 200 ppm except where followed by “*”, which indicates 40 ppm.

[5] = test system: Puccinia recondita f. sp. tritici; test: Test I: wheat leaf rust on wheat seedlings, sprayed the day before inoculation, visual disease rating
Text: as §1

[6] = test system: Erysiphe graminis f. sp. tritici; test: Test J: wheat powdery mildew on wheat seedlings, sprayed the day before inoculation, visual disease rating
Text: as §1

[7] = 200 ppm, 0 = no control relative to controls
[8] = 40 ppm (marked *), 0 = no control

SMILES	Test C disease control rating [1, 7] [%]	Test D disease control rating [2, 7] [%]	Test F disease control rating [3, 7] [%]	Test G disease control rating [4, 7] [%]	Test I disease control rating [5, 7] [%]	Test J disease control rating [6, 7] [%]	also measured
Cc1nn(C)c(-c2c(F)cccc2Cl)c1-c1ccc(Cl)cc1 [compound 61]	40	0	0	60	92	99	–
Fc1ccc(-c2c(Cl)nc(Br)n2-c2ccc(Cl)c(F)c2)c(Cl)c1 [compound 202]	–	–	–	–	–	–	Test C disease control rating ([1]; 200 ppm, 0 = no control): 91%; Test D disease control rating ([2]; 200 ppm, 0 = no control): 61%; Test F disease control rating ([3]; 200 ppm, 0 = no control): 98%; Test G disease control rating ([4]; 200 ppm, 0 = no control): 97%; Test I disease control rating ([5]; 200 ppm, 0 = no control): 98%; Test J disease control rating ([6]; 200 ppm, 0 = no control): 100%
COc1cc(F)c(-c2c(Cl)nc(Br)n2-c2ccc(Cl)nc2)c(F)c1 [compound 729]	100	100	99	99	100	100	–
Cc1c(CCl)sc(-c2cnc(Cl)n2-c2ccc(Cl)cc2)c1Cl [compound 451]	0	0	0	82	19	0	–
Cc1nc(Cl)c(-c2c(F)cc(O)cc2F)n1-c1ccc(Cl)cc1 [compound 119]	96	80	40	91	80	0	–
Fc1ccc(-n2c(Br)nc(Cl)c2-c2c(F)ccc(F)c2Cl)cc1 [compound 195]	–	–	–	–	–	–	Test C disease control rating ([1]; 200 ppm, 0 = no control): 99%; Test D disease control rating ([2]; 200 ppm, 0 = no control): 100%; Test F disease control rating ([3]; 200 ppm, 0 = no control): 64%; Test G disease control rating ([4]; 200 ppm, 0 = no control): 94%; Test I disease control rating ([5]; 200 ppm, 0 = no control): 100%; Test J disease control rating ([6]; 200 ppm, 0 = no control): 94%
COc1cc(F)c(-c2c(Br)nc(C)n2-c2ccc(Cl)cc2)c(F)c1C [compound 59]	–	–	–	–	–	–	Test C disease control rating ([1]; 40 ppm (marked *)): 93* %; Test D disease control rating ([2]; 40 ppm (marked *)): 100* %; Test F disease control rating ([3]; 40 ppm (marked *)): 82* %; Test G disease control rating ([4]; 40 ppm (marked *)): 97* %; Test I disease control rating ([5]; 40 ppm (marked *)): 86* %; Test J disease control rating ([6]; 40 ppm (marked *)): 97* %
Cc1nc(Cl)c(-c2c(F)cccc2Cl)n1-c1ccc(F)cc1 [compound 189]	–	–	–	–	–	–	Test C disease control rating ([1]; 200 ppm, 0 = no control): 98%; Test D disease control rating ([2]; 200 ppm, 0 = no control): 100%; Test F disease control rating ([3]; 200 ppm, 0 = no control): 51%; Test G disease control rating ([4]; 200 ppm, 0 = no control): 97%; Test I disease control rating ([5]; 200 ppm, 0 = no control): 100%; Test J disease control rating ([6]; 200 ppm, 0 = no control): 99%
Fc1ccc(-n2c(Br)nc(Cl)c2-c2c(F)cccc2F)cc1 [compound 72]	96	100	92	97	99	100	–
COc1cc(F)c(-c2c(Cl)nc(Cl)n2-c2cccc(Cl)c2)c(F)c1 [compound 453]	99	100	–	93	100	100	Test F disease control rating ([3]; 40 ppm (marked *)): 90* %
Cc1nn(C)c(-c2c(F)cccc2Cl)c1-c1ccc(Cl)c(F)c1 [compound 63]	0	0	0	33	41	100	–
CSc1ccc(F)c(-c2c(Cl)nc(Br)n2-c2ccc(Cl)cc2)c1F [compound 231]	–	–	–	–	–	–	Test C disease control rating ([1]; 200 ppm, 0 = no control): 87%; Test D disease control rating ([2]; 200 ppm, 0 = no control): 61%; Test F disease control rating ([3]; 200 ppm, 0 = no control): 100%; Test G disease control rating ([4]; 200 ppm, 0 = no control): 99%; Test I disease control rating ([5]; 200 ppm, 0 = no control): 96%; Test J disease control rating ([6]; 200 ppm, 0 = no control): 98%
Fc1cc(-n2c(Cl)nc(Cl)c2-c2ccncc2F)ccc1Cl [compound 455]	99	95	0	95	99	68	–
COc1cc(F)c(-c2c(-c3ccc(Cl)c(F)c3)c(C)nn2C)c(F)c1 [compound 79]	53	97	0	95	92	100	–
Cc1ccc(F)c(-c2c(Cl)nc(Br)n2-c2ccc(Cl)cc2)c1F [compound 105]	98	99	94	94	99	100	–
Fc1ccc(Cl)c(F)c1-c1c(Cl)nc(Br)n1-c1ccc(Cl)cc1 [compound 100]	97	93	99	97	98	99	–
COc1cc(F)c(-c2c(-c3ccc(Cl)cc3)c(C)nn2C)c(F)c1 [compound 77]	98	100	82	97	99	100	–
Fc1cccc(F)c1-n1cnc(Br)c1-c1ccc(Cl)cc1 [compound 200]	–	–	–	–	–	–	Test C disease control rating ([1]; 200 ppm, 0 = no control): 0%; Test D disease control rating ([2]; 200 ppm, 0 = no control): 0%; Test F disease control rating ([3]; 200 ppm, 0 = no control): 0%; Test G disease control rating ([4]; 200 ppm, 0 = no control): 45%; Test I disease control rating ([5]; 200 ppm, 0 = no control): 0%; Test J disease control rating ([6]; 200 ppm, 0 = no control): 21%
Fc1cc(-n2c(Br)nc(Cl)c2-c2c(F)ccc(F)c2F)ccc1Cl [compound 143]	99	100	100	100	100	100	–
Fc1ccc(F)c(-c2c(Cl)nc(Br)n2-c2ccc(Cl)cc2)c1 [compound 85]	73	100	11	98	96	100	–
COc1cc(F)c(-c2c(C)ncn2-c2ccc(Cl)cc2)c(F)c1 [compound 56]	–	–	–	–	–	99	Test C disease control rating ([1]; 40 ppm (marked *)): 96* %; Test D disease control rating ([2]; 40 ppm (marked *)): 100* %; Test F disease control rating ([3]; 40 ppm (marked *)): 60* %; Test G disease control rating ([4]; 40 ppm (marked *)): 96* %; Test I disease control rating ([5]; 40 ppm (marked *)): 94* %
Fc1cc(F)c(-n2c(Cl)nc(Cl)c2-c2ccc(Cl)cc2)c(F)c1 [compound 204]	–	–	–	–	–	–	Test C disease control rating [1, 8]: 90* %; Test D disease control rating [2, 8]: 91* %; Test F disease control rating [3, 8]: 0* %; Test G disease control rating [4, 8]: 90* %; Test I disease control rating [5, 8]: 18* %; Test J disease control rating [6, 8]: 26* %
Fc1ccc(-n2cnc(Cl)c2-c2c(F)cccc2F)cc1F [compound 160]	–	–	–	–	–	–	Test C disease control rating ([1]; 200 ppm, 0 = no control): 91%; Test D disease control rating ([2]; 200 ppm, 0 = no control): 93%; Test F disease control rating ([3]; 200 ppm, 0 = no control): 0%; Test G disease control rating ([4]; 200 ppm, 0 = no control): 93%; Test I disease control rating ([5]; 200 ppm, 0 = no control): 28%; Test J disease control rating ([6]; 200 ppm, 0 = no control): 98%
COc1cc(F)c(-c2c(Cl)nc(Cl)n2-c2ccc(F)c(F)c2)c(F)c1 [compound 454]	77	100	33	93	100	100	–
Cc1nn(C)c(-c2c(F)cc(F)cc2F)c1-c1ccc(Cl)cc1 [compound 69]	74	99	0	25	0	97	–
COc1cc(F)c(-c2c(Cl)nc(Cl)n2-c2ccc(Cl)c(F)c2)c(F)c1 [compound 240]	–	–	–	–	–	–	Test C disease control rating ([1]; 200 ppm, 0 = no control): 100%; Test D disease control rating ([2]; 200 ppm, 0 = no control): 100%; Test F disease control rating ([3]; 200 ppm, 0 = no control): 100%; Test G disease control rating ([4]; 200 ppm, 0 = no control): 97%; Test I disease control rating ([5]; 200 ppm, 0 = no control): 100%; Test J disease control rating ([6]; 200 ppm, 0 = no control): 100%
